The assay addresses PRMT5/MEP50 complex (Homo sapiens (Human), UniProt O14744). Briefly: PRMT5:MEP50 FlashPlate Assay (histone H4 peptide substrate, plus and minus MTA). The class given is biochemical. The following applies: for IC50: IC50 + 2 μM MTA (nM), in the presence of 2 μM MTA; for pIC50: in the absence of MTA, read-out: IC50. The procedure: The PRMT5 inhibitory activity of compounds of the present invention was determined using either a PRMT5:MEP50 FlashPlate Assay (Reaction Biology Corporation) or a PRMT5:MEP50 HotSpot Assay (Reaction Biology Corporation).
1. PRMT5:MEP50 FlashPlate Assay

pIC50: −log10 of the molar value. Where two headings read alike, the source gives them in different places.

PRMT5/MEP50 complex, sequence (O14744 2-637): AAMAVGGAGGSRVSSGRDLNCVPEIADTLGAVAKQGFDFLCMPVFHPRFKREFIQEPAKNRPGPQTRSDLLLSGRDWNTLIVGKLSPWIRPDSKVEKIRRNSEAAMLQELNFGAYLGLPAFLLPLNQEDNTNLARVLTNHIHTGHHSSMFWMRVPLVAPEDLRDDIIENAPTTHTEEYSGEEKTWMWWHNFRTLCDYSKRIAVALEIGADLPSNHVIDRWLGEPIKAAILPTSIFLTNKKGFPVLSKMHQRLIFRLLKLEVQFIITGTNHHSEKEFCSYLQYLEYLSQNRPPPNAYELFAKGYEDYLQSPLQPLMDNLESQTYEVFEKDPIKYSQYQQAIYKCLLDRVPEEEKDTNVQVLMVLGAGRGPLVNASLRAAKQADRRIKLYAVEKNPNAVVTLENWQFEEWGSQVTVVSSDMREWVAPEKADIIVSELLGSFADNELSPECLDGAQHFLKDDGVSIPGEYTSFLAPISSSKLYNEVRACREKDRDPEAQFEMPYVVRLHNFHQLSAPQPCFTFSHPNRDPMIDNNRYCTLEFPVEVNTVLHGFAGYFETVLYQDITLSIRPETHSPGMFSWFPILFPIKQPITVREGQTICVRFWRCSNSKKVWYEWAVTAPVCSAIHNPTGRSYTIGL
PRMT5/MEP50 complex, sequence (Q9BQA1 2-342 partner): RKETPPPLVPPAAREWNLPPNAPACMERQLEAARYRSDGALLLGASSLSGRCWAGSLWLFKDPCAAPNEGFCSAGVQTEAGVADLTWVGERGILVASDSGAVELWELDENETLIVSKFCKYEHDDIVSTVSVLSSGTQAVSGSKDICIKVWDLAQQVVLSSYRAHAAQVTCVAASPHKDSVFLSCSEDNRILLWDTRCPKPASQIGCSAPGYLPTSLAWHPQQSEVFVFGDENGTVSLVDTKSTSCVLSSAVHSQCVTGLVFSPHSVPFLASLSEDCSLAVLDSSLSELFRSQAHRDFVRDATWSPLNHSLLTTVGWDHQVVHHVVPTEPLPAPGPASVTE

What is called IC50 is the point on the concentration scale where inhibition reaches its midpoint. The pIC50 is the negative decadic logarithm of the IC50, by convention in mol/L. Regarding `Cn1ncc(-c2ccc3c(=O)[nH]nc(CN)c3c2)c1-c1cccc(F)c1` [Example 4-91, 4-(aminomethyl)-6-(5-(3-fluorophenyl)-1-methyl-1H-pyrazol-4-yl)phthalazin-1(2H)-one], the IC50 stood at 16 nM and the pIC50 is 6.60. The matching figures for `Cc1c(Cl)cccc1Oc1cncc(-c2ccc3c(=O)[nH]nc(CN)c3c2)c1` [Example 4-75, 4-(aminomethyl)-6-(5-(3-chloro-2-methylphenoxy)pyridin-3-yl)phthalazin-1(2H)-one]: 0.7 nM and 7.48. As to `Cc1cc(-c2ccc3c(=O)[nH]nc(CN)c3c2)[nH]n1` [Example 3-21, 4-(aminomethyl)-6-(5-methyl-1H-pyrazol-3-yl)phthalazin-1(2H)-one], the IC50 was 1800 nM and the pIC50 is 4.40. In the same order, the values of `CC(C)N1CCn2ncc(-c3ccc4c(=O)[nH]nc(CN)c4c3)c2C1` [Example 4-81, 4-(aminomethyl)-6-(5-isopropyl-4,5,6,7-tetrahydropyrazolo[1,5-a]pyrazin-3-yl)phthalazin-1(2H)-one] are 18 nM and 6.08. The matching figures for `NCc1n[nH]c(=O)c2ccc(-c3cnc4[nH]cc(C(F)(F)F)c4c3)cc12` [Example 4-43, 4-(aminomethyl)-6-(3-(trifluoromethyl)-1H-pyrrolo[2,3-b]pyridin-5-yl)phthalazin-1(2H)-one]: 32 nM and 5.82.

On to `CCn1cc(-c2ccc3c(=O)[nH]nc(CN)c3c2)cn1` [Example 3-15, 4-(aminomethyl)-6-(1-ethyl-1H-pyrazol-4-yl)phthalazin-1(2H)-one], for which the IC50 turned out to be 650 nM and the pIC50 was 4.73. The matching figures for `NCc1n[nH]c(=O)c2ccc(-c3cnc4ccc(-c5ccccc5)cn34)cc12` [Example 4-39, 4-(aminomethyl)-6-(6-phenylimidazo[1,2-a]pyridin-3-yl)phthalazin-1(2H)-one]: 1.7 nM and 6.96. For the molecule `Cc1nc2ccc(F)cn2c1-c1ccc2c(=O)[nH]nc(CN)c2c1` [Example 4-33, 4-(aminomethyl)-6-(6-fluoro-2-methylimidazo[1,2-a]pyridin-3-yl)phthalazin-1(2H)-one], the IC50 was > 100000 nM and the pIC50 was < 4.00. For the molecule `NCc1n[nH]c(=O)c2ccc(-c3cnn4c3CN(C(=O)c3ccccc3)CC4)cc12` [Example 4-90, 4-(aminomethyl)-6-(5-benzoyl-4,5,6,7-tetrahydropyrazolo[1,5-a]pyrazin-3-yl)phthalazin-1(2H)-one], the IC50 came to 82 nM and the negative logarithm of the IC50 (pIC50) is 5.56. The matching figures for `NCc1n[nH]c(=O)c2ccc(-c3cnc4ccc(Cl)nn34)cc12` [Example 4-18, 4-(aminomethyl)-6-(6-chloroimidazo[1,2-b]pyridazin-3-yl)phthalazin-1(2H)-one]: 280 nM and 5.35.

For `N#Cc1ccn2c(-c3ccc4c(=O)[nH]nc(CN)c4c3)cnc2c1` [Example 4-35, 3-(4-(aminomethyl)-1-oxo-1,2-dihydrophthalazin-6-yl)imidazo[1,2-a]pyridine-7-carbonitrile], the IC50 worked out at 1100 nM and the pIC50 was < 4.00. The matching figures for `NCc1n[nH]c(=O)c2ccc(N3CCOCC3)cc12` [Example 6-5, 4-(aminomethyl)-6-morpholino-2H-phthalazin-1-one]: > 100000 nM and < 4.00. The matching figures for `NCc1n[nH]c(=O)c2ccc(-c3cnc4ccc(F)cn34)cc12` [Example 4-21, 4-(aminomethyl)-6-(6-fluoroimidazo[1,2-a]pyridin-3-yl)phthalazin-1(2H)-one]: 70 nM and 5.71.

Regarding `Cc1nc2ccc(Cl)nn2c1-c1ccc2c(=O)[nH]nc(CN)c2c1` [Example 4-14, 4-(aminomethyl)-6-(6-chloro-2-methylimidazo[1,2-b]pyridazin-3-yl)phthalazin-1(2H)-one], the IC50 was 7900 nM and the pIC50 is < 4.00. In the same order, the values of `NCc1n[nH]c(=O)c2ccc(-c3cncc(CC4CC4)c3)cc12` [Example 3-35, 4-(aminomethyl)-6-(5-(cyclopropylmethyl)pyridin-3-yl)phthalazin-1(2H)-one] are 59 nM and 5.82. In the same order, the values of `NCc1n[nH]c(=O)c2ccc(-n3ccnc3)cc12` [Example 6-1, 4-(aminomethyl)-6-imidazol-1-yl-2H-phthalazin-1-one] are 5800 nM and < 4.00. Turning to `NCc1n[nH]c(=O)c2ccc(-c3cncn4cccc34)cc12` [Example 4-13, 4-(aminomethyl)-6-(pyrrolo[1,2-c]pyrimidin-4-yl)phthalazin-1(2H)-one], the IC50 was 210 nM and the pIC50 is 5.59. For the molecule `NCc1n[nH]c(=O)c2ccc(-c3cnc4[nH]cc(CO)c4c3)cc12` [Example 4-47, 4-(aminomethyl)-6-(3-(hydroxymethyl)-1H-pyrrolo[2,3-b]pyridin-5-yl)phthalazin-1(2H)-one], the IC50 was 19 nM and the pIC50 is 6.18. As to `CC#Cc1cncc(-c2ccc3c(=O)[nH]nc(CN)c3c2)c1` [Example 3-39, 4-(aminomethyl)-6-(5-(prop-1-yn-1-yl)pyridin-3-yl)phthalazin-1(2H)-one], the 50% inhibitory concentration (IC50) was found to be 920 nM and the pIC50 was 4.61. As to `Cc1c(-c2ccc3c(=O)[nH]nc(CN)c3c2)cnn1C` [Example 3-9, 4-(aminomethyl)-6-(1,5-dimethyl-1H-pyrazol-4-yl)phthalazin-1(2H)-one], the IC50 was 33 nM and the pIC50 is 5.91. The matching figures for `Cn1cncc1-c1ccc2c(=O)[nH]nc(CN)c2c1` [Example 3-30, 4-(aminomethyl)-6-(1-methyl-1H-imidazol-5-yl)phthalazin-1(2H)-one]: 7700 nM and 4.07. Turning to `Cc1ncc(-c2ccc3c(=O)[nH]nc(CN)c3c2)n1CC#N` [Example 4-109, 2-(5-(4-(aminomethyl)-1-oxo-1,2-dihydrophthalazin-6-yl)-2-methyl-1H-imidazol-1-yl)acetonitrile], the IC50 worked out at 120 nM and the pIC50 was 5.31. For the molecule `NCc1n[nH]c(=O)c2ccc(-c3cnc4ccccc4c3)cc12` [Example 3-6, 4-(aminomethyl)-6-(quinolin-3-yl)phthalazin-1(2H)-one], the IC50 amounted to 5100 nM and the pIC50 is 4.33. The matching figures for `NCc1n[nH]c(=O)c2ccc(-c3cncc4nccn34)cc12` [Example 4-12, 4-(aminomethyl)-6-(imidazo[1,2-a]pyrazin-5-yl)phthalazin-1(2H)-one]: 7400 nM and < 4.00. In the same order, the values of `NCc1n[nH]c(=O)c2ccc(-c3cncc(Cl)c3)cc12` [Example 3-42, 4-(aminomethyl)-6-(5-chloropyridin-3-yl)phthalazin-1(2H)-one] are 200 nM and 5.45. Consider `Cn1ncc(-c2ccc3c(=O)[nH]nc(CN)c3c2)c1C#N` [Example 4-31, 4-(4-(aminomethyl)-1-oxo-1,2-dihydrophthalazin-6-yl)-1-methyl-1H-pyrazole-5-carbonitrile], for which the IC50 amounted to 410 nM and the pIC50 is 5.12. `Cc1nc2cncc(-c3ccc4c(=O)[nH]nc(CN)c4c3)c2o1` [Example 4-110, 4-(aminomethyl)-6-(2-methyloxazolo[4,5-c]pyridin-7-yl)phthalazin-1(2H)-one]: the IC50 is 1000 nM.

As to `Cn1ncc(-c2ccc3c(=O)[nH]nc(CN)c3c2)c1-c1ccc(F)cc1` [Example 4-95, 4-(aminomethyl)-6-(5-(4-fluorophenyl)-1-methyl-1H-pyrazol-4-yl)phthalazin-1(2H)-one], the IC50 is 4.9 nM and the pIC50 is 6.64. In the same order, the values of `Cc1nc2cnccn2c1-c1ccc2c(=O)[nH]nc(CN)c2c1` [Example 4-23, 4-(aminomethyl)-6-(2-methylimidazo[1,2-a]pyrazin-3-yl)phthalazin-1(2H)-one] are > 100000 nM and < 4.00.

On to `NCc1n[nH]c(=O)c2ccc(-c3cncc(N4CCOCC4)c3)cc12` [Example 3-58, 4-(aminomethyl)-6-(5-morpholinopyridin-3-yl)phthalazin-1(2H)-one], for which the IC50 worked out at 510 nM and the pIC50 is 5.09. For `CC(C)c1c[nH]c2ncc(-c3ccc4c(=O)[nH]nc(CN)c4c3)cc12` [Example 3-61, 4-(aminomethyl)-6-(3-isopropyl-1H-pyrrolo[2,3-b]pyridin-5-yl)phthalazin-1(2H)-one], the IC50 was found to be 3.4 nM and the pIC50 was 7.10. In the same order, the values of `COc1ccc(C#N)c(-c2cncc(-c3ccc4c(=O)[nH]nc(CN)c4c3)c2)c1` [Example 8-8, 2-(5-(4-(aminomethyl)-1-oxo-1,2-dihydrophthalazin-6-yl)pyridin-3-yl)-4-methoxybenzonitrile] are 20 nM and 6.10. With `NCc1n[nH]c(=O)c2ccc(-c3cnc4c(F)cc(Cl)cn34)cc12` [Example 4-27, 4-(aminomethyl)-6-(6-chloro-8-fluoroimidazo[1,2-a]pyridin-3-yl)phthalazin-1(2H)-one], the IC50 worked out at 1300 nM and the pIC50 is < 4.00. Turning to `NCc1n[nH]c(=O)c2ccc(C3CCCC3)cc12` [Example 5-1, 4-(aminomethyl)-6-cyclopentylphthalazin-1(2H)-one], the IC50 worked out at 72000 nM and the pIC50 was < 4.00.

For `NCc1n[nH]c(=O)c2ccc(-c3cncc(Sc4ccccc4)c3)cc12` [Example 4-55, 4-(aminomethyl)-6-(5-(phenylthio)pyridin-3-yl)phthalazin-1(2H)-one], the IC50 is 1.2 nM and the pIC50 was 7.52.

In the case of `NCc1n[nH]c(=O)c2ccc(-c3cncc(O)c3)cc12` [Example 3-44, 4-(aminomethyl)-6-(5-hydroxypyridin-3-yl)phthalazin-1(2H)-one], the IC50 turned out to be 1200 nM and the pIC50 is 4.71.

The record behind these values is patent US11479551B2, “MTA-cooperative PRMT5 inhibitors” (Mirati Therapeutics, Inc., priority 2019, dated 2022).
